Test results: US7473418B2, “Pan cancer oncolytic vectors and methods of use thereof” (Cell Genesys, Inc., priority 2004, dated 2009)

How the values were obtained:
[1] = system: Hep3B cells; test: In vitro combination of CG5757 and chemotherapeutic agents; type: cell-based, human
Protocol: (§1) Potential synergism between existing chemotherapeutic agents and the replication competent vectors of the present invention was investigated. Co-application of CG5757 with a variety of known chemotherapeutic agents was evaluated using an in vitro cell assay. A variety of known chemotherapeutic agents were tested in combination with CG5757 for their in vitro cytotoxic effect on Hep3B and LNCaP cells.

[2] = system: LNCaP cells; test: as above; type: cell-based, human
Protocol: as §1

Row | SMILES | combination effect with CG5757 [1] | cytotoxicity ([1]; 5 ng/ml, agent alone) | combination effect with CG5757 [2]
1 | COc1cccc2c1C(=O)c1c(O)c3c(c(O)c1C2=O)C[C@@](O)(C(=O)CO)C[C@@H]3O[C@H]1C[C@H](N)[C@H](O)[C@H](C)O1 [doxorubicin] | potential synergistic cytotoxicity | did not generate cytotoxicity | –
2 | CC(=O)O[C@H]1C(=O)[C@@]2(C)[C@H]([C@H](OC(=O)c3ccccc3)[C@]3(O)C[C@H](OC(=O)[C@H](O)[C@@H](NC(=O)c4ccccc4)c4ccccc4)C(C)=C1C3(C)C)[C@]1(OC(C)=O)CO[C@@H]1C[C@@H]2O [Taxol] | – | – | potential synergistic cytotoxicity
